Data: patent US20210253562A1, “ACYLSUFONAMIDE COMPOUNDS USEFUL AS EP3 RECEPTOR ANTAGONISTS” (Janssen Pharmaceutica NV, priority 2018, published 2021)
Where two headings read alike, the source gives them in different places.

Legend:
[1] = target: T1, EP3 membrane (EP3 receptor) (Homo sapiens, UniProt P43115); assay: [3H]-PGE2 binding; EP3 competition binding (SPA)
T1 construct: purchased Millipore HTS092M
T1 sequence (P43115 1-390): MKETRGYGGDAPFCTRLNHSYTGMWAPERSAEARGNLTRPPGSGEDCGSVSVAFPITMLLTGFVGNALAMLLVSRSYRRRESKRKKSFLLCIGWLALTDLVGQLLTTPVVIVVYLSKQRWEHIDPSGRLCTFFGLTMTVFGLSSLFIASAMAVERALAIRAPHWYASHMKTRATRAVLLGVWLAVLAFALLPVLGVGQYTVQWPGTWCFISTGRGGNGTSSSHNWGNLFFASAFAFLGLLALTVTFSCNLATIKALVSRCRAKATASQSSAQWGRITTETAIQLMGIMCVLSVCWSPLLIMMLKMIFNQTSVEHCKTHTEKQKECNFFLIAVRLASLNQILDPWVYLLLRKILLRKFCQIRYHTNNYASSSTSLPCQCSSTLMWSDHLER
Summary of the method: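 SPA competition at room temperature, 2 h: EP3 membranes 2 μg/well, 2 nM [3H]-PGE2, 0.1% DMSO, in Tris/MgCl2/EDTA buffer pH 7.4. Compounds in 1:3 serial dilution; scintillation read; Ki by one-site nonlinear fit.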

[2] = target: T2, CHO cells over-expressing the EP3 receptor (Homo sapiens, UniProt P43115); assay: CHO cell cAMP assay; EP3 cAMP antagonist dose response (sulprostone reference), HTRF; assay type: cell-based; details: sulprostone 700 nM (EC80) and FSK 2 μM (EC70); read-out: CHO_cAMP IC50
T2 construct: expressed in transfected cells; host or cells: CHO cells
T2 sequence (P43115 1-390): T1 sequence (P43115 1-390)
Summary of the method: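 EP3-overexpressing CHO cells pre-incubated with test compound, then stimulated 30 min at 37 °C with FSK (2 μM, EC70) plus sulprostone (700 nM, EC80); antagonism seen as restored cAMP. cAMP measured by HTRF 665/615 ratio, converted via on-plate standard curve. IC50 from Hill fit of 11-point dosing.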

Compound	Ki [1]	IC50 [2]	Ki ([1]; unit nM)
O=C(NC/C(F)=C1\CCCc2cnn(Cc3ccc(C(F)(F)F)cc3)c21)NS(=O)(=O)c1cc2ccccc2o1 [Compound #132, (Z)—N-((2-fluoro-2-(1-(4-(trifluoromethyl)benzyl)-1,4,5,6-tetrahydro-7H-indazol-7-ylidene)ethyl)carbamoyl)benzofuran-2-sulfonamide]	350 nM	3900 nM	–
O=C(NC/C(F)=C1\CCCc2cnn(Cc3ccc(C(F)(F)F)cc3)c21)NS(=O)(=O)c1cc2ccccc2s1 [Compound #133, (Z)—N-((2-fluoro-2-(1-(4-(trifluoromethyl)benzyl)-1,4,5,6-tetrahydro-7H-indazol-7-ylidene)ethyl)carbamoyl)benzo[b]thiophene-2-sulfonamide]	289 nM	1260 nM	–
O=C(NC/C(F)=C1\CCCc2cnn(Cc3ccc(C(F)(F)F)cc3)c21)NS(=O)(=O)c1cc(Cl)c(Cl)s1 [Compound #134, (Z)-4,5-dichloro-N-((2-fluoro-2-(1-(4-(trifluoromethyl)benzyl)-1,4,5,6-tetrahydro-7H-indazol-7-ylidene)ethyl)carbamoyl)thiophene-2-sulfonamide]	7 nM	52 nM	–
O=C(NC/C(F)=C1/CCCn2nnc(Cc3ccccc3)c21)NS(=O)(=O)c1cc(Cl)c(Cl)s1 [Compound #135, (E)-N-((2-(3-benzyl-6,7-dihydro-[1,2,3]triazolo[1,5-a]pyridin-4(5H)-ylidene)-2-fluoroethyl)carbamoyl)-4,5-dichlorothiophene-2-sulfonamide]	472 nM	4600 nM	–
O=C(NC/C(F)=C1\CCc2cnn(Cc3ccc(Cl)cc3Cl)c21)NS(=O)(=O)c1cc(Cl)c(Cl)s1 [Compound #136, (Z)-4,5-dichloro-N-((2-(1-(2,4-dichlorobenzyl)-4,5-dihydro-cyclopenta[c]pyrazol-6(1H)-ylidene)-2-fluoroethyl)carbamoyl)thiophene-2-sulfonamide]	5 nM	46 nM	–
O=C(NC/C(F)=C1/CCc2cnn(-c3ccc(C(F)(F)F)cc3)c21)NS(=O)(=O)c1cc(Cl)c(Cl)s1 [Compound #137, (E)-4,5-dichloro-N-((2-fluoro-2-(1-(4-(trifluoromethyl)phenyl)-4,5-dihydrocyclopenta[c]pyrazol-6(1H)-ylidene)ethyl)carbamoyl)thiophene-2-sulfonamide]	220 nM	488 nM	–
O=C(NC/C=C1\CCCc2cnn(Cc3cnc(-c4ccccc4)nc3)c21)NS(=O)(=O)c1cc(Cl)c(Cl)s1 [Compound #138, (E)-4,5-dichloro-N-((2-(1-((2-phenylpyrimidin-5-yl)methyl)-1,4,5,6-tetrahydro-7H-indazol-7-ylidene)ethyl)carbamoyl)thiophene-2-sulfonamide]	–	6 nM	0.4 nM
Cc1ncc(S(=O)(=O)NC(=O)NC/C=C2\CCCc3cnn(Cc4ccc(Cl)cc4Cl)c32)s1 [Compound #139, (E)-N-((2-(1-(2,4-dichlorobenzyl)-1,4,5,6-tetrahydro-7H-indazol-7-ylidene)ethyl)carbamoyl)-2-methylthiazole-5-sulfonamide]	7 nM	9 nM	–
O=C(NC/C=C1\CCCc2cnn(C3CCN(c4ccccn4)CC3)c21)NS(=O)(=O)c1cc(Cl)c(Cl)s1 [Compound #140, (E)-4,5-dichloro-N-((2-(1-(1-(pyridin-2-yl)piperidin-4-yl)-1,4,5,6-tetrahydro-7H-indazol-7-ylidene)ethyl)carbamoyl)thiophene-2-sulfonamide]	8 nM	12 nM	–
COc1ccc(Cn2ncc3c2/C(=C(\F)CNC(=O)NS(=O)(=O)c2cc(Cl)c(Cl)s2)CCC3)cn1 [Compound #141, (Z)-4,5-dichloro-N-((2-fluoro-2-(1-((6-methoxypyridin-3-yl)methyl)-1,4,5,6-tetrahydro-7H-indazol-7-ylidene)ethyl)carbamoyl)thiophene-2-sulfonamide]	215 nM	750 nM	–
COc1ccc(S(=O)(=O)NC(=O)NC/C(F)=C2\CCCc3cnn(Cc4ccc(Cl)cc4Cl)c32)cc1Cl [Compound #143, (Z)-3-chloro-N-((2-(1-(2,4-dichlorobenzyl)-1,4,5,6-tetrahydro-7H-indazol-7-ylidene)-2-fluoroethyl)carbamoyl)-4-methoxybenzenesulfonamide]	3 nM	18 nM	–
O=C(NC/C(F)=C1\COCc2[nH]nc(Cc3ccc(Cl)cc3Cl)c21)NS(=O)(=O)c1cc(Cl)c(Cl)s1 [Compound #147, (E)-4,5-dichloro-N-((2-(3-(2,4-dichlorobenzyl)-1,7-dihydropyrano[3,4-c]pyrazol-4(5H)-ylidene)-2-fluoroethyl)carbamoyl)thiophene-2-sulfonamide]	–	5 nM	0.4 nM
Cc1cc(S(=O)(=O)NC(=O)NC/C(F)=C2\CCCc3cnn(Cc4ccc(Cl)cc4Cl)c32)sc1Cl [Compound #149, (Z)-5-chloro-N-((2-(1-(2,4-dichlorobenzyl)-1,4,5,6-tetrahydro-7H-indazol-7-ylidene)-2-fluoroethyl)carbamoyl)-4-methylthiophene-2-sulfonamide]	2 nM	6 nM	–
Cc1nc(C)c(S(=O)(=O)NC(=O)NC/C=C2\CCCc3cnn(Cc4ccc(Cl)cc4Cl)c32)s1 [Compound #150, (E)-N-((2-(1-(2,4-dichlorobenzyl)-1,4,5,6-tetrahydro-7H-indazol-7-ylidene)ethyl)carbamoyl)-2,4-dimethylthiazole-5-sulfonamide]	2 nM	4 nM	–
Cn1cc(S(=O)(=O)NC(=O)NC/C=C2\CCCc3cnn(Cc4ccc(Cl)cc4Cl)c32)cn1 [Compound #152, (E)-N-((2-(1-(2,4-dichlorobenzyl)-1,4,5,6-tetrahydro-7H-indazol-7-idene)ethyl)carbamoyl)-1-methyl-1H-pyrazole-4-sulfonamide]	9 nM	8 nM	–
O=C(NC/C=C1\CCCn2nnc(-c3ccc(C(F)(F)F)cc3)c21)NS(=O)(=O)c1cc(Cl)c(Cl)s1 [Compound #155, (E)-4,5-dichloro-N-((2-(3-(4-(trifluoromethyl)phenyl)-6,7-dihydro-[1,2,3]triazolo[1,5-a]pyridin-4(5H)-ylidene)ethyl)carbamoyl)thiophene-2-sulfonamide]	2 nM	4 nM	–
O=C(NC/C(F)=C1\CCCc2cnn(Cc3ccc(Cl)cc3Cl)c21)NS(=O)(=O)c1ccc(F)c(F)c1 [Compound #156, (Z)—N-((2-(1-(2,4-dichlorobenzyl)-1,4,5,6-tetrahydro-7H-indazol-7-ylidene)-2-fluoroethyl)carbamoyl)-3,4-difluorobenzenesulfonamide]	2 nM	4 nM	–
O=C(NS(=O)(=O)c1ccc(Cl)cc1)OC/C=C1\CCCc2cnn(-c3ncccn3)c21 [compound 95]	> 10000 nM	> 20000 nM	–
O=C(NS(=O)(=O)c1ccc(Cl)cc1)OC/C(F)=C1/COCc2cnn(-c3cccc(C(F)(F)F)c3)c21 [compound 108]	> 10000 nM	> 20000 nM	–
